Test results taken from patent publication US20210121383A1, “COMPOSITION FOR ANTI-AGING” (MORINAGA MILK INDUSTRY CO., LTD., priority 2018, published 2021).

System: HepG2 cells derived from liver cancer
Assay: Test 2: quantitative evaluation of autophagy activity (CYTO-ID/Hoechst 33342 fluorescence, microplate reader)
Format: cell-based
Conditions: 100 μM compound 1 or compound 2, 24 hours (positive control 500 nM rapamycin, 16 hours), then 10 μM chloroquine 6 hours; 3 wells per group
Protocol: The active action of autophagy of the compound 1 or the compound 2 observed in Test 1 was quantitatively detected.
HepG2 cells derived from liver cancer in 2.5×10^4 cells were plated in a 96-well plate (manufactured by Falcon), and the culture was performed for 24 hours in DMEM containing 10% FBS under the conditions of 37° C. and a CO2 concentration of 5%. After that, the cells were cultured for 24 hours by using a medium for testing prepared in (1-1) of (1) in Test 1. Further, the culture was performed in a similar manner as in Test 1 also in the negative control and the positive control. […]
Into each well, 100 μL of an assay buffer attached to a kit (manufactured by Enzo Life Sciences, Inc.) was added, and the fluorescence intensity was measured by using a fluorescence microplate reader, SH-9000 (manufactured by CORONA ELECTRIC Co., Ltd.). The fluorescence derived from the fluorescent probe for autophagy detection was measured under the conditions of an excitation filter of 480 nm and a fluorescence filter of 530 nm. Further, the fluorescence derived from each staining reagent was measured under the conditions of an excitation filter of 340 nm and a fluorescence filter of 480 nm.
Results of the fluorescence intensity of the cells exposed to a compound 1 or a compound 2, which was measured by a fluorescence microplate reader, are shown in Table 1. […]

With `CO[C@H]1C[C@@H]2CC[C@@H](C)[C@@](O)(O2)C(=O)C(=O)N2CCCC[C@H]2C(=O)O[C@H]([C@H](C)C[C@@H]2CC[C@@H](O)[C@H](OC)C2)CC(=O)[C@H](C)/C=C(\C)[C@@H](O)[C@@H](OC)C(=O)[C@H](C)C[C@H](C)/C=C/C=C/C=C/1C` [Positive control, rapamycin] the “Autophagy induction (CYTO-ID fluorescence intensity/Hoechst 33342 fluorescence intensity)” value was 93.
